Results reported in publication PMC8425678, “1-Oxo-3,4-dihydroisoquinoline-4-carboxamides as novel druglike inhibitors of poly(ADP-ribose) polymerase (PARP) with favourable ADME characteristics” (Journal of Enzyme Inhibition and Medicinal Chemistry, 2021).
Like-named read-outs stand apart in the source and are kept apart here.

Experiments:
PARP2 [1] = target: T1, PARP2 (Homo sapiens, UniProt Q9UGN5); conditions: cited from earlier work
T1 construct: purchased BPS Bioscience (San Diego, CA)

PARP2 [2] = target: T1, PARP2; experiment: PARP2 colorimetric activity assay kit (BPS Bioscience); type: biochemical; conditions: for IC50: dose-response, mean (n = 3) ± SD, r^2 in brackets
Protocol: (§1) The thirty-six 1-oxo-3,4-dihydroisoquinoline-4-carboxamides 3a-aj and 1-oxoisoquinoline-4-carboxamide 11 were tested for inhibitory activity towards PARP1 and PARP2 using the commercially available colorimetric activity assay kit from BPS Bioscience (San Diego, CA) in full accordance of the supplier’s method description[13]^,[14]. The initial screening was performed against PARP1 at 1 µM concentration of each compound, in triplicate (n = 3) measurements.

PARP1 = target: T2, PARP1 (Homo sapiens, UniProt P09874); experiment: PARP1 colorimetric activity assay kit (BPS Bioscience); type: biochemical; conditions: for IC50: dose-response, mean (n = 3) ± SD, r^2 in brackets; for inhibition at 1 µM: read-out: PARP1 % inhibition at 1 µM, 1 µM compound, triplicate (n = 3)
T2 construct: purchased BPS Bioscience (San Diego, CA)
Protocol: as §1

[3] = Plasma stability determination; type: in vitro ADME, human; conditions: 4 h, 37 °C, 10 μM
Protocol: Determination of stability in human blood plasma was carried out using pooled human blood plasma obtained from ten healthy donors. The candidate stock solution (10 mM in DMSO) was diluted with the pooled blood plasma to a concentration of 10 μM (test solution). The test solution was kept in a solid-state thermostat for 4 h at a temperature of 37 °C. HPLC method using an Agilent 1260 chromatograph (Agilent, USA) was employed to determine the peak area of the compounds in the test samples corresponding to the initial test time (before exposure) and the final test time (after incubation in a solid-state thermostat for 4 h at 37 °C) with preliminary precipitation of protein mass with acetonitrile (300 μL MeCN per 100 μL of the reaction mixture). After stopping the reaction, the samples were centrifuged for 10 min at 10,000 rpm and the supernatant was collected. Chromatographic analysis was performed in a gradient elution mode at a flow rate of 1 ml/min.

[4] = Plasma protein binding determination (RED dialysis); type: in vitro ADME; conditions: pooled human blood plasma, 37 °C, read-out: plasma protein binding (% bound) (converted)
Protocol: Determination of binding to human blood plasma proteins was carried out using pooled human blood plasma obtained from ten healthy donors. Determination was performed using Thermo Scientific ™ Single-RED dialysis plates. Test solutions of the candidate (10 mM in DMSO) were prepared in blood plasma and in 0.01 M sodium phosphate buffer by dilution in pooled blood plasma to a concentration of 10 μM (test solution 1) and in buffer to a concentration of 10 μM (test solution 2), respectively. The test solutions were transferred to the chambers of the dialysis plate, incubated in an Environmental Shaker – Incubator ES-20/60 (Biosan, Latvia) for 4 h at a temperature of 37 °C at a speed of 130–250 rpm. During the incubation, passive diffusion of the unbound compound occurs, and after 4 h, equilibrium is reached between the chambers with plasma with buffer solution. At the end of the incubation time, samples were taken from the chambers of the plate. HPLC analysis performed using an Agilent 1260 chromatograph (Agilent, USA) allowed determination of the peak area of the compounds in the test samples with preliminary precipitation of proteins with acetonitrile (300 µL of acetonitrile per 100 µL of the reaction mixture). After stopping the reaction, the samples were centrifuged for 10 min at 10,000 rpm and the supernatant was collected.
The concentration of the test compound in the buffer and plasma chambers was calculated using the formula: С=At=4/At=0×10, where At=0 is the value of the peak area of the candidate's test solution on the chromatogram at the initial moment of time;
The % unbound compound was calculated using the formula: %Free=C1/C2×100, where C1 is the concentration value in the buffer chamber;

[5] = Stability in human liver S9 fraction; type: in vitro ADME; conditions: human liver S9 0.5 mg/mL, 10 μM compound, 37 °C; intrinsic clearance
Protocol: (§2) The rate of enzymatic degradation of the compound in liver microsomes was determined by incubating a mixture containing 0.5 mg/mL of pooled human liver microsomes (XenoTech, USA, cat. # H2620), 10 μM of compound tested, 2 mM β-nicotinamide adenine dinucleotide (Carbosynth, UK, cat. # NN10871) and 4 mM magnesium chloride in 0.1 M sodium phosphate buffer (pH 7.4) in a solid-state thermostat at 37 °C. The rate of enzymatic degradation of the compound in human liver S9 fraction was determined by incubating a reaction mixture containing 0.5 mg/mL of pooled S9 human liver fractions (XenoTech, USA, cat # H0610), 10 μM of compound tested, 2 mM β-nicotinamide adenine dinucleotide (Carbosynth, UK, cat # NN10871) and 4 mM magnesium chloride in 0.1 M sodium phosphate buffer (pH 7.4) in a solid-state thermostat at 37 °C. The reaction was stopped with acetonitrile (100 μL MeCN per 100 μL of the reaction mixture). After stopping the reaction, the samples were centrifuged for 10 min at 10,000 rpm. The supernatant was analysed by chromatography using an Agilent 1260 chromatograph (Agilent, United States). Chromatographic analysis was performed in a gradient elution mode at a flow rate of 1 ml/min. A graph of the dependence of the logarithm of the area of the peak of the substance on time was built. The dependent coefficient of this straight line corresponded to the elimination constant k, on the basis of which the half-life of the drug (T1/2) and intrinsic clearance (Clint) were calculated.

[6] = Stability in human liver microsomes; type: in vitro ADME; conditions: HLM 0.5 mg/mL, 10 μM compound, 37 °C; intrinsic clearance
Protocol: as §2

[7] = Aqueous PBS solubility determination; type: physicochemical; conditions: sodium phosphate buffer, kinetic from dmso stock, pH 7.4 0.01 M phosphate buffer solution, 37 °C
Protocol: The stock solution of the compound tested in DMSO (10 mM) was diluted with 0.01 M sodium phosphate buffer solution (pH 7.4) to the concentration of 100 µM, 80 µM, 60 µM, 50 µM, 40 µM, 30 µM, 20 µM and 10 µM. The serially diluted solutions were transferred into a 96-well plate (Corning 3635, UV Plate) and the plate was incubated at 37 °C for 2 h using BioSan PST-60HL-4 thermo shaker. The plate was read at the wavelength of 620 nm using spectrophotometric microplate reader Sunrise (Tecan, Australia). The optical density values were plotted against compound concentration and approximated by a linear relationship to determine the aqueous solubility.

T1 sequence (Q9UGN5 whole entry): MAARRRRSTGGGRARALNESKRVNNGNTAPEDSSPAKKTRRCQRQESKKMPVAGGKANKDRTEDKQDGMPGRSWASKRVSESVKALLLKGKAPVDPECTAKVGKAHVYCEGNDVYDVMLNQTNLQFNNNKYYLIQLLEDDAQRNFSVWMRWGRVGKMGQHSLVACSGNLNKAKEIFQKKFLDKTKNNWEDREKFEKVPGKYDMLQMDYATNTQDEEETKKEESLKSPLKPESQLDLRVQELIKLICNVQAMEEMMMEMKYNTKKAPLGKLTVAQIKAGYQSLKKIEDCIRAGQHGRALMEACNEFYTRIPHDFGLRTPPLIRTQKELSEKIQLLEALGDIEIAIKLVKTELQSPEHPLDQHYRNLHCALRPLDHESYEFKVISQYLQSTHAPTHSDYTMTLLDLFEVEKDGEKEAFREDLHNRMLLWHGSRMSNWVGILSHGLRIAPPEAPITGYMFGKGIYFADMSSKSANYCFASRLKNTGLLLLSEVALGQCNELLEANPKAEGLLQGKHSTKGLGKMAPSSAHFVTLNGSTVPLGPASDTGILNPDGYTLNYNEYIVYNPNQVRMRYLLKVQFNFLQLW
T2 sequence (P09874 whole entry): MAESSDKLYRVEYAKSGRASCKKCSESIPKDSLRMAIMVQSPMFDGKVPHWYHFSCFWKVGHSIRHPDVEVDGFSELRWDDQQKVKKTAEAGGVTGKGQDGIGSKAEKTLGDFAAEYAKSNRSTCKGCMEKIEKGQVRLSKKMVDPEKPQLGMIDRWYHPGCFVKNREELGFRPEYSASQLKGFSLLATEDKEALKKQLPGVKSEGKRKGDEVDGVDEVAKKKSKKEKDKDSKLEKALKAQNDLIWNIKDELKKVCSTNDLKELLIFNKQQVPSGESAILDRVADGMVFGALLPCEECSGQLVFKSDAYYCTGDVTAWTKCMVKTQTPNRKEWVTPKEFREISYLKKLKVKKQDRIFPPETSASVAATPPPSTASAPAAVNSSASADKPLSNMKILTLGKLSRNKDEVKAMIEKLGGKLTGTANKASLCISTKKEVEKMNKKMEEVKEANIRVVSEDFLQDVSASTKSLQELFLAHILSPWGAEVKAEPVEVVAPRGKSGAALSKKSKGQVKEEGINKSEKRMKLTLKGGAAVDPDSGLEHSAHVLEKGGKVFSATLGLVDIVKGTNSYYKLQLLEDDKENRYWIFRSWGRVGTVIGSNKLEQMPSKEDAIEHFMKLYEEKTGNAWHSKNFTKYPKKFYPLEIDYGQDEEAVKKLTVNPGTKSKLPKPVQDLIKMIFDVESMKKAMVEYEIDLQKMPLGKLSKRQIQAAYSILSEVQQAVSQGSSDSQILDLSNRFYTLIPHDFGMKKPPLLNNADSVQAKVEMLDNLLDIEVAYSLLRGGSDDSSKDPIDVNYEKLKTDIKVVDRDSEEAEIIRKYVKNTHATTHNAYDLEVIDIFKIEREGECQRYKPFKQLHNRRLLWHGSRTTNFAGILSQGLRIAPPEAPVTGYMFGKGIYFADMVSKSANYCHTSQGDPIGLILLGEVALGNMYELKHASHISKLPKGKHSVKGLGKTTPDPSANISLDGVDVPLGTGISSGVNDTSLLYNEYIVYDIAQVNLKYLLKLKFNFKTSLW

Row | SMILES | IC50 (PARP2 [1]) | SI, selectivity index (PARP2 over PARP1) (PARP2 [2]) | IC50 (PARP2 [2]) | IC50 (PARP1) | fold better potency compared to 3l (PARP1; magic fluorine effect, 3aa vs 3l) | inhibition at 1 µM (PARP1) | % compound remaining after incubation with human plasma [3] | fraction unbound at 4 h, 10 µM [4] | Stability in the presence of hepatic S9 fraction [5] | Stability in the presence of human liver microsomes [6] | solubility at 2 h [7] | melting point | PARP1 inhibitory potency in words (PARP1; compared with 3l) | fold lower potency compared to 3l or 3aa (PARP1; 3,4-dehydro analog vs 3l / 3aa)
1 | O=C(Nc1cccc2c(=O)[nH]ccc12)c1ccccc1 [Compound 2] | 1500 nM |  |  |  |  |  |  |  |  |  |  |  |  | 
2 | O=C1NCC(C(=O)N2CCC(N3CCCCC3)CC2)c2ccc(F)cc21 (stereo not drawn) [Compound 3aa, 4-([1,4'-Bipiperidine]-1'-carbonyl)-7-fluoro-3,4-dihydroisoquinolin-1(2H)-one] |  | 2.17 | 29.4 ± 4.5 nM | 63.1 ± 5.3 nM | ~2.5 fold | 91.8 ± 0.7% | 100% | 0.29 | 0.1 µL/min/mg | 3.4 µL/min/mg | > 100 µM |  |  | 
3 | CC1CCN(C2CCN(C(=O)C3CNC(=O)c4cc(F)ccc43)CC2)CC1 (stereo not drawn) [Compound 3ab, 7-Fluoro-4–(4-methyl-[1,4'-bipiperidine]-1'-carbonyl)-3,4-dihydroisoquinolin-1(2H)-one] |  | 2.82 | 28.8 ± 4.2 nM | 82 ± 6.9 nM |  | 93.9 ± 0.2% |  |  |  |  |  | 171 to 172 °C |  | 
4 | O=C1NCC(C(=O)N2CCC(N3CCCC3)CC2)c2ccc(F)cc21 (stereo not drawn) [Compound 3ac, 7-Fluoro-4–(4-(pyrrolidin-1-yl)piperidine-1-carbonyl)-3,4-dihydroisoquinolin-1(2H)-one] |  | 2.3 | 29.6 ± 6.1 nM | 69.5 ± 8.8 nM |  | 95.8 ± 0.7% |  |  |  |  |  | 141 to 142 °C |  | 
5 | CCN(CC)C1CCN(C(=O)C2CNC(=O)c3cc(F)ccc32)CC1 (stereo not drawn) [Compound 3ad, 4–(4-(Diethylamino)piperidine-1-carbonyl)-7-fluoro-3,4-dihydroisoquinolin-1(2H)-one] |  | 3.23 | 40.4 ± 5.8 nM | 128 ± 7.1 nM |  | 92.6 ± 1.1% |  |  |  |  |  | 134 to 135 °C |  | 
6 | O=C1NCC(C(=O)N2CCC(N3CCCCCC3)CC2)c2ccc(F)cc21 (stereo not drawn) [Compound 3ae, 4-(4-(Azepan-1-yl)piperidine-1-carbonyl)-7-fluoro-3,4-dihydroisoquinolin-1(2H)-one] |  | 2.61 | 20.6 ± 2.5 nM | 55 ± 9.9 nM |  | 96.6 ± 0.3% |  |  |  |  |  | 179 to 180 °C |  | 
7 | CC1(C)CCCN(C2CCN(C(=O)C3CNC(=O)c4cc(F)ccc43)CC2)C1 (stereo not drawn) [Compound 3af, 4–(3,3-Dimethyl-[1,4'-bipiperidine]-1'-carbonyl)-7-fluoro-3,4-dihydroisoquinolin-1(2H)-one] |  | 5.05 | 19.4 ± 3.7 nM | 95.6 ± 11.5 nM |  | 96.9 ± 0.5% |  |  |  |  |  | 182 to 183 °C |  | 
8 | CC1(C)CCN(C2CCN(C(=O)C3CNC(=O)c4cc(F)ccc43)CC2)CC1 (stereo not drawn) [Compound 3ag, 4–(4,4-Dimethyl-[1,4'-bipiperidine]-1'-carbonyl)-7-fluoro-3,4-dihydroisoquinolin-1(2H)-one] |  | 4.63 | 22 ± 5.6 nM | 102 ± 9.4 nM |  | 95 ± 0.9% |  |  |  |  |  | 200 to 201 °C |  | 
9 | COC1CCN(C2CCN(C(=O)C3CNC(=O)c4cc(F)ccc43)CC2)CC1 (stereo not drawn) [Compound 3aj, 7-Fluoro-4–(4-methoxy-[1,4'-bipiperidine]-1'-carbonyl)-3,4-dihydroisoquinolin-1(2H)-one] |  | 6.05 | 44.1 ± 3.9 nM | 266 ± 25 nM |  | 90.5 ± 0.1% |  |  |  |  |  | 186 to 187 °C |  | 
10 | O=C1NCC(C(=O)N2CCC(N3CCCCC3)CC2)c2ccccc21 (stereo not drawn) [Compound 3l, 4-([1,4'-Bipiperidine]-1'-carbonyl)-3,4-dihydroisoquinolin-1(2H)-one] |  | 2.23 | 70.1 ± 7.6 nM | 156 ± 5.8 nM |  | 85.2 ± 2.6% | 92.6% | 0.332 | 0.3 µL/min/mg | 2.6 µL/min/mg | > 100 µM |  | active | 
11 | O=C1NCC(C(=O)N2CCN(C3CCCCCC3)CC2)c2ccccc21 (stereo not drawn) [Compound 3z, 4–(4-Cycloheptylpiperazine-1-carbonyl)-3,4-dihydroisoquinolin-1(2H)-one] |  |  |  |  |  | 45.2 ± 7.4% |  |  |  |  |  | 207 to 208 °C |  | 
12 | O=C(c1c[nH]c(=O)c2ccccc12)N1CCC(N2CCCCC2)CC1 [Compound 11, 4-([1,4'-Bipiperidine]-1'-carbonyl)isoquinolin-1(2H)-one] |  |  |  |  |  | 49.1 ± 2.6% |  |  |  |  |  | 171 to 174 °C |  | approximately 10 fold
13 | O=C(c1cc(Cc2n[nH]c(=O)c3ccccc23)ccc1F)N1CCN(C(=O)C2CC2)CC1 [Olaparib, reference compound] |  |  |  |  |  |  | 100% | 0.098 | 1.1 µL/min/mg | 15 µL/min/mg | > 100 µM |  |  | 
